Laboratory results as given in PubChem BioAssay (NCI).
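Each compound was tested at five concentrations against cells in 96-well plates for 48 hours. TGI: concentration producing complete growth inhibition.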

How the values were obtained:
Experiment in all cases: NCI anticancer screen, dose series, 48 h
786-0 renal = test system: 786-0 renal
A498 renal = test system: A498 renal
A549 NSCLC = test system: A549 NSCLC
ACHN renal = test system: ACHN renal
CAKI-1 renal = test system: CAKI-1 renal
CCRF-CEM leukemia = test system: CCRF-CEM leukemia
COLO 205 colon = test system: COLO 205 colon
DLD-1 colon = test system: DLD-1 colon
DMS 114 small cell lung = test system: DMS 114 small cell lung
DMS 273 small cell lung = test system: DMS 273 small cell lung
EKVX NSCLC = test system: EKVX NSCLC
HCC-2998 colon = test system: HCC-2998 colon
HCT-116 colon = test system: HCT-116 colon
HOP-18 NSCLC = test system: HOP-18 NSCLC
HOP-62 NSCLC = test system: HOP-62 NSCLC
HOP-92 NSCLC = test system: HOP-92 NSCLC
HT29 colon = test system: HT29 colon
IGROV1 ovarian = test system: IGROV1 ovarian
K-562 leukemia = test system: K-562 leukemia
KM12 colon = test system: KM12 colon
KM20L2 colon = test system: KM20L2 colon
LOX IMVI melanoma = test system: LOX IMVI melanoma
LXFL 529 NSCLC = test system: LXFL 529 NSCLC
M14 melanoma = test system: M14 melanoma
M19-MEL melanoma = test system: M19-MEL melanoma
MALME-3M melanoma = test system: MALME-3M melanoma
MOLT-4 leukemia = test system: MOLT-4 leukemia
NCI-H226 lung = test system: NCI-H226 lung
NCI-H23 lung = test system: NCI-H23 lung
NCI-H460 lung = test system: NCI-H460 lung
NCI-H522 lung = test system: NCI-H522 lung
OVCAR-3 ovarian = test system: OVCAR-3 ovarian
OVCAR-4 ovarian = test system: OVCAR-4 ovarian
OVCAR-5 ovarian = test system: OVCAR-5 ovarian
OVCAR-8 ovarian = test system: OVCAR-8 ovarian
RPMI-8226 leukemia = test system: RPMI-8226 leukemia
RXF-631 renal = test system: RXF-631 renal
SF-268 CNS = test system: SF-268 CNS
SF-295 CNS = test system: SF-295 CNS
SF-539 CNS = test system: SF-539 CNS
SK-MEL-2 melanoma = test system: SK-MEL-2 melanoma
SK-MEL-28 melanoma = test system: SK-MEL-28 melanoma
SK-MEL-5 melanoma = test system: SK-MEL-5 melanoma
SK-OV-3 ovarian = test system: SK-OV-3 ovarian
SN12C renal = test system: SN12C renal
SNB-19 CNS = test system: SNB-19 CNS
SNB-75 CNS = test system: SNB-75 CNS
SNB-78 CNS = test system: SNB-78 CNS
SR leukemia = test system: SR leukemia
SW-620 colon = test system: SW-620 colon
TK-10 renal = test system: TK-10 renal
U251 CNS = test system: U251 CNS
UACC-257 melanoma = test system: UACC-257 melanoma
UACC-62 melanoma = test system: UACC-62 melanoma
UO-31 renal = test system: UO-31 renal
XF 498 CNS = test system: XF 498 CNS
HCT-15 colon = test system: HCT-15 colon
HL-60(TB) leukemia = test system: HL-60(TB) leukemia
RXF 393 renal = test system: RXF 393 renal

## C#CCOCn1cnc2c(N)ncnc21
786-0 renal
  TGI: > 100 µM
A498 renal
  TGI: > 100 µM
A549 NSCLC
  TGI: > 100 µM
ACHN renal
  TGI: > 100 µM
CAKI-1 renal
  TGI: > 100 µM
CCRF-CEM leukemia
  TGI: > 100 µM
COLO 205 colon
  TGI: > 100 µM
DLD-1 colon
  TGI: > 100 µM
DMS 114 small cell lung
  TGI: > 100 µM
DMS 273 small cell lung
  TGI: > 100 µM
EKVX NSCLC
  TGI: > 100 µM
HCC-2998 colon
  TGI: > 100 µM
HCT-116 colon
  TGI: > 100 µM
HOP-18 NSCLC
  TGI: > 100 µM
HOP-62 NSCLC
  TGI: > 100 µM
HOP-92 NSCLC
  TGI: > 100 µM
HT29 colon
  TGI: > 100 µM
IGROV1 ovarian
  TGI: > 100 µM
K-562 leukemia
  TGI: > 100 µM
KM12 colon
  TGI: > 100 µM
KM20L2 colon
  TGI: > 100 µM
LOX IMVI melanoma
  TGI: > 100 µM
LXFL 529 NSCLC
  TGI: > 100 µM
M14 melanoma
  TGI: > 100 µM
M19-MEL melanoma
  TGI: > 100 µM
MALME-3M melanoma
  TGI: > 100 µM
MOLT-4 leukemia
  TGI: > 100 µM
NCI-H226 lung
  TGI: > 100 µM
NCI-H23 lung
  TGI: > 100 µM
NCI-H460 lung
  TGI: > 100 µM
NCI-H522 lung
  TGI: > 100 µM
OVCAR-3 ovarian
  TGI: > 100 µM
OVCAR-4 ovarian
  TGI: > 100 µM
OVCAR-5 ovarian
  TGI: > 100 µM
OVCAR-8 ovarian
  TGI: > 100 µM
RPMI-8226 leukemia
  TGI: > 100 µM
RXF-631 renal
  TGI: > 100 µM
SF-268 CNS
  TGI: > 100 µM
SF-295 CNS
  TGI: > 100 µM
SF-539 CNS
  TGI: > 100 µM
SK-MEL-2 melanoma
  TGI: > 100 µM
SK-MEL-28 melanoma
  TGI: > 100 µM
SK-MEL-5 melanoma
  TGI: > 100 µM
SK-OV-3 ovarian
  TGI: > 100 µM
SN12C renal
  TGI: > 100 µM
SNB-19 CNS
  TGI: > 100 µM
SNB-75 CNS
  TGI: > 100 µM
SNB-78 CNS
  TGI: > 100 µM
SR leukemia
  TGI: > 100 µM
SW-620 colon
  TGI: > 100 µM
TK-10 renal
  TGI: > 100 µM
U251 CNS
  TGI: > 100 µM
UACC-257 melanoma
  TGI: > 100 µM
UACC-62 melanoma
  TGI: > 100 µM
UO-31 renal
  TGI: > 100 µM
XF 498 CNS
  TGI: > 100 µM

## CC1=C(c2ccccc2)CON(c2ccccc2)C1
786-0 renal
  TGI: > 100 µM
A549 NSCLC
  TGI: > 100 µM
ACHN renal
  TGI: > 100 µM
CAKI-1 renal
  TGI: > 100 µM
CCRF-CEM leukemia
  TGI: > 100 µM
COLO 205 colon
  TGI: > 100 µM
DMS 114 small cell lung
  TGI: > 100 µM
EKVX NSCLC
  TGI: > 100 µM
HCC-2998 colon
  TGI: > 100 µM
HCT-116 colon
  TGI: 79.9 µM
HCT-15 colon
  TGI: > 100 µM
HL-60(TB) leukemia
  TGI: 76.2 µM
HOP-62 NSCLC
  TGI: > 100 µM
HT29 colon
  TGI: > 100 µM
IGROV1 ovarian
  TGI: > 100 µM
K-562 leukemia
  TGI: > 100 µM
KM12 colon
  TGI: > 100 µM
KM20L2 colon
  TGI: > 100 µM
LOX IMVI melanoma
  TGI: > 100 µM
LXFL 529 NSCLC
  TGI: > 100 µM
M14 melanoma
  TGI: > 100 µM
M19-MEL melanoma
  TGI: > 100 µM
MALME-3M melanoma
  TGI: > 100 µM
MOLT-4 leukemia
  TGI: > 100 µM
NCI-H226 lung
  TGI: > 100 µM
NCI-H23 lung
  TGI: > 100 µM
NCI-H460 lung
  TGI: > 100 µM
NCI-H522 lung
  TGI: 53.8 µM
OVCAR-3 ovarian
  TGI: > 100 µM
OVCAR-4 ovarian
  TGI: > 100 µM
OVCAR-5 ovarian
  TGI: > 100 µM
OVCAR-8 ovarian
  TGI: > 100 µM
RPMI-8226 leukemia
  TGI: > 100 µM
RXF 393 renal
  TGI: 86.2 µM
RXF-631 renal
  TGI: 77.4 µM
SF-268 CNS
  TGI: > 100 µM
SF-295 CNS
  TGI: > 100 µM
SF-539 CNS
  TGI: > 100 µM
SK-MEL-2 melanoma
  TGI: > 100 µM
SK-MEL-28 melanoma
  TGI: 86.2 µM
SK-MEL-5 melanoma
  TGI: 47.5 µM
SK-OV-3 ovarian
  TGI: > 100 µM
SN12C renal
  TGI: > 100 µM
SNB-19 CNS
  TGI: > 100 µM
SNB-78 CNS
  TGI: > 100 µM
SR leukemia
  TGI: > 100 µM
SW-620 colon
  TGI: > 100 µM
U251 CNS
  TGI: 69 µM
UACC-257 melanoma
  TGI: > 100 µM
UACC-62 melanoma
  TGI: > 100 µM
UO-31 renal
  TGI: 97.5 µM
XF 498 CNS
  TGI: > 100 µM
